Read-outs that look alike come from different tables or passages of the source.
Key:
[1] = test system: HOK-16B cells; assay: MTS cell viability assay; type: cell-based, human
Description: FIG. 6. Effect of peptides on viability of (A) HOK-16B cells and (B) KB cells. The toxic effect of the compounds on the cells was determined by calorimetric assay using a CellTiter 96 AQueous One Solution cell proliferation assay (MTS) kit, as described in the text. Briefly, the cells were grown to about 80% confluence, harvested, washed, resuspended in KGM, and dispensed into a 96-well microtiter plate. They were then exposed to different concentrations of peptides or amphotericin B at 37° C. and 5% CO2 for 1.5 h. MTS agent was then added to each well, and the cells were further incubated for 4 h. Absorbance at 490 nm was then measured using a microplate reader. MTS reduction is an indication of cell viability. The viability is expressed as relative absorbance (percentage of no-agent control). Data represent the average and standard deviation of results from two independent experiments.
Cell culture. The HOK-16B cell line (originated from primary normal human keratinocytes) was kindly provided by No-Hee Park, UCLA School of Dentistry. The KB cell line was obtained from the American Type Culture Collection (CLL-17). […]
MTS cell viability assay. The toxic effect of the compounds on the cells was determined by calorimetric assay using a CellTiter 96 AQueous One Solution cell proliferation assay (MTS) kit (Promega, Wis.). […] Absorbance at 490 nm was then measured using a microplate reader. […]

[2] = test system: C. albicans strain DIS; type: in vivo, mice ICR strain; details: for Log10 cfu/ml (Mean + S.D.), Initial infection: before treatment (baseline)
Description: A previously described protocol was adopted (14). Mice were immunosuppressed with two subcutaneous injections of prednisolone at a dose of 100 mg/kg body weight 1 day prior to and 3 days after the infection with C. albicans. Tetracycline hydrochloride in drinking water at a concentration of 0.83 mg/ml was given to mice beginning 1 day before infection. Mice were anesthetized by intramuscular injection with 60 μl of 2 mg/ml chlorpromazine chloride, using a dose of 10 mg/kg body weight of mice. While under anesthesia, a small cotton ball soaked in 0.1 ml aliquot of C. albicans cell suspension (2.5×10^6 cells) was used to swab the entire oral cavity of the anesthetized mice.
Visual evaluation was done by carefully extending the tongue of randomly picked mice using blunt-end forceps, while the mice were under isoflurane sedation. Presence of thick, white curd-like patches indicated candidal infection. At day 3 post-infection, all animals were examined for evidence oral candidal infection by microbiological evaluation. The entire oral cavity of anesthetized mice was swabbed using a sterile calcium alginate disposable swab (Fisher Scientific), dampened with sterile PBS. Cells were then released from the swab into 1 ml PBS. Serial 10-fold dilutions were plated on SDA plates supplemented with streptomycin (30 μg/ml). Plates were incubated for 24 h at 37° C. and yeast cell count expressed as log10 of cfu/ml.
Tongues from sacrificed animals were used for histological studies. They were fixed in 10% formalin and embedded in paraffin. Serial five-μm sections were cut from the paraffin block and stained with periodic acid-Schiff (PAS) reagent for detection of C. albicans.
Mice were randomly divided into various treatment groups with 8 mice per group. Antifungal agents were employed on an equimolar basis, and included amphotericin B (1.75%), clotrimazole (0.66%), MUC7 12-mer (RKSYKCLHKRCR—SEQ ID NO:1) (L; 3%), MUC7 12-mer (D; 3%), MUC7 12-mer (D; 3%) containing Na2EDTA (1 mM), MUC7 12-mer (L; 3%) containing protease inhibitor cocktail (PIC) (1%), and Hsn5 12-mer (AKRHHGYKRKFH—SEQ ID NO:2) (3%). They were all emulsified in Pluronic F127, (20% lipoil), a polymer of polyoxyethylene and polyoxypropylene (non-ionic surfactant). Animals were anesthetized using isoflurane; while sedated, about 30 to 40 μl of the antifungal emulsion was applied on the tongue and spread throughout oral cavity. The treated mice were under sedation for additional 5 min under isoflurane. Animals were not given access to food and water for 1 h following the application.
Fungal burden was re-evaluated quantitatively after 3 and 6 days of treatment, using the same technique as the one used for initial evaluation. Randomly picked mice from each group was subjected to histopathological evaluation, after 6 days of treatment. Blood from randomly sacrificed mice from each treatment group was analyzed for any changes in the serum liver (AST, ALT, ALP etc.) and kidney enzymes (BUN, glucose, creatinine etc) levels.
Statistical analysis was performed using a significance level set at 0.05 (α) and a significant group size (n=8). Initial infection and antifungal treatment efficacy were determined using analysis of variance (ANOVA), expressed as log10 cfu, and Scheffe's multiple comparison test was used to determine the differences between various treatment groups.

[3] = Experimental study I, topical oral application

Compound: C[C@@H]1[C@H](O)[C@@H](C)/C=C/C=C/C=C/C=C/C=C/C=C/C=C/[C@H](O[C@@H]2O[C@H](C)[C@@H](O)[C@H](N)[C@@H]2O)C[C@@H]2O[C@](O)(C[C@@H](O)C[C@@H](O)[C@H](O)CC[C@@H](O)C[C@@H](O)CC(=O)O[C@H]1C)C[C@H](O)[C@H]2C(=O)O [Amphotericin B]
- IC50 [1]: 100 µM
- Log10 cfu/ml (Mean + S.D.), Initial infection ([2]; Experimental study I, day 3 post-infection): 4.52 ± 0.15 Log10 cfu/ml
- Log10 cfu/ml (Mean + S.D.), 3-days treatment [2, 3]: 1.79 ± 1.16 Log10 cfu/ml
- Log10 cfu/ml (Mean + S.D.), 6-days treatment [2, 3]: 0.75 ± 1.04 Log10 cfu/ml
- Log10 cfu/ml (Mean + S.D.), 3-days treatment ([2]; Experimental study II): 1.23 ± 1.44 Log10 cfu/ml
- Log10 cfu/ml (Mean + S.D.), Initial infection ([2]; Experimental study II): 4.26 ± 0.54 Log10 cfu/ml
- histopathological finding in tongue sections (C. albicans, PAS staining) ([2]; end of treatment): healthy tissue and absence of visible microorganisms

From US7271239B2, “D-isomers of antimicrobial peptide” (The Research Foundation of State University of New York, priority 2004, dated 2007)
